Series [1] in a line: Extraction of ethanol from an aqueous solution by ionic liquid. Type of series: physicochemical. The following applies: 5 vol % ionic liquid; for g/L ethanol left in solution / mM Ethanol (in solution after extraction): 3 mL aqueous solution, about 31 g/L ethanol, overnight equilibration; for g/L ethanol left in solution: control 30.2; for mM Ethanol (in solution after extraction): control 655; for % EthOH Extracted: percentage of alcohol remaining in control.
Experimental: (§2) The extraction of ethanol and isobutanol from an aqueous solution by selected ionic liquids was evaluated. […] Ethanol and isobutanol concentration in the solution was measured using HPLC as described above following thorough mixing and overnight equilibration of the contents of the vial.

For series [2], the system named is Lactobacillus zeae (ATCC 15820). Briefly: Glucose Uptake Index (GUI) of culture grown with ionic liquid. The following applies: 5% (v/v) ionic liquid, 16 hours at 30° C., GUI of control without ionic liquid 61.9. Type of series: cell-based. The protocol:
(§1) After 24 hours the test tube was removed and used immediately.

Series [3] concerns Lactobacillus fermentum (ATCC 14931). Described as above. Type of series: cell-based. The following applies: 5% (v/v) ionic liquid, 16 hours at 30° C., GUI of control without ionic liquid 55.9. How it is done: as §1
Series [4] is described as follows: Extraction of isobutanol from an aqueous solution by ionic liquid. Type of series: physicochemical. The following applies: 5 vol % ionic liquid; for g/L isobutanol left in solution / mM isobutanol (in solution after extraction): 3 mL aqueous solution, about 31 g/L isobutanol, overnight equilibration; for g/L isobutanol left in solution: control 32.3; for mM isobutanol (in solution after extraction): control 436; for % isobutanol Extracted: percentage of alcohol remaining in control.
Experimental: as §2

Results on eight compounds are retold here after patent publication US20100143992A1, “Process for Fermentive Preparation of Alcohols and Recovery of Product” (E. I du Pont de Nemours and Company, priority 2008, published 2010).

For “1-Butyl-3-methylimidazolium levulinate [[BMIM] [Lev]]”, in series [1], the “g/L ethanol left in solution” value is recorded as 27.5 g/L, the “mM Ethanol (in solution after extraction)” value (“mM Ethanol” below) came out at 596 mM and the “% EthOH Extracted” value is listed as 8.95%.

“1-Ethyl-3-methylimidazolium levulinate [[EMIM] [Lev]]”: the “GUI of Sample (Glucose Utilization Index in the presence of ionic liquid phase)” value in series [2] amounted to 41.4; in series [3], 32.3.

In the case of `CC1CCC(=O)N1CC[N+](C)(C)CCO.O=S(=O)([N-]S(=O)(=O)C(F)(F)F)C(F)(F)F` (centres unmarked) [[MeDHEAP] [Tf2N], 1-(N,N,N-dimethyl(hydroxyethyl)aminoethyl)-5-methylpyrrolidone-2-one bis(trifluoromethane)sulfonamide], in series [4], the “g/L isobutanol left in solution” value was 30.9 g/L, the “mM isobutanol (in solution after extraction)” value (“mM isobutanol” below) came out at 417 mM and the “% isobutanol Extracted” value is reported as 4.68%.

As for `CCOCC[N+](C)(C)CCN1C(=O)CCC1C` (centres unmarked) [[MeDMEEAP] [HFPS]] [1-(N,N,N-dimethyl(ethylethoxy)aminoethyl)-5-methyl-pyrrolidine-2-one hexafluoropropanesulfonate], in series [4], the “g/L isobutanol left in solution” value turned out to be 31.3 g/L, the “mM isobutanol” value is on record as 422 mM and the “% isobutanol Extracted” value is recorded as 3.38%. In series [2], the “GUI of Sample (Glucose Utilization Index in the presence of ionic liquid phase)” value came out at 46.9. Besides, the “GUI of Sample (Glucose Utilization Index in the presence of ionic liquid phase)” value in series [3] is 34.5. Further, in series [1], the “g/L ethanol left in solution” value is 30.2 g/L, the “mM Ethanol” value is recorded as 656 mM and the “% EthOH Extracted” value turned out to be 0.00%.

On to `CCOCC[N+](C)(C)CCN1C(=O)CCC1C` (centres unmarked) [[MeDMEEAP] [Tf2N]] [1-(N,N,N-dimethyl(ethylethoxy)aminoethyl)-5-methyl-pyrrolidine-2-one bis(trifluoromethane)-sulfonamide], for which, in series [4], the “g/L isobutanol left in solution” value came to 29.5 g/L, the “mM isobutanol” value is recorded as 398 mM and the “% isobutanol Extracted” value is given as 9.48%. Besides, in series [2], the “GUI of Sample (Glucose Utilization Index in the presence of ionic liquid phase)” value was 49.5. In addition, the “GUI of Sample (Glucose Utilization Index in the presence of ionic liquid phase)” value in series [3] is listed as 37.6. Further, in series [1], the “g/L ethanol left in solution” value is 29.4 g/L, the “mM Ethanol” value amounted to 637 mM and the “% EthOH Extracted” value is 2.66%.

For `COCC[N+](C)(C)CCN1C(=O)CCC1C` (centres unmarked) [[MeDMMEAP] [HFPS], 1-(N,N,N-dimethyl(methylethoxy)aminoethyl)-5-methylpyrrolidin-2-one hexafluoropropanesulfonate], in series [4], the “g/L isobutanol left in solution” value is 31.4 g/L, the “mM isobutanol” value was determined as 423 mM and the “% isobutanol Extracted” value was 3.00%. In addition, the “GUI of Sample (Glucose Utilization Index in the presence of ionic liquid phase)” value in series [2] is 45.1. Also, the “GUI of Sample (Glucose Utilization Index in the presence of ionic liquid phase)” value in series [3] was 31.3. In addition, in series [1], the “g/L ethanol left in solution” value came to 29.7 g/L, the “mM Ethanol” value turned out to be 645 mM and the “% EthOH Extracted” value amounted to 1.48%.

Turning to `CCC[N+](C)(C)CCN1C(=O)CCC1C.O=S(=O)([N-]S(=O)(=O)C(F)(F)F)C(F)(F)F` (centres unmarked) [[MeDMPAP] [Tf2N], 1-(N,N,N-dimethylpropylaminoethyl)-5-methylpyrrolidone-2-one bis(trifluoromethane)sulfonamide], in series [4], the “g/L isobutanol left in solution” value is 28.7 g/L, the “mM isobutanol” value was found to be 387 mM and the “% isobutanol Extracted” value is 12.7%.

Take `COCC[N+](C)(C)CCN1C(=O)CCC1C.O=S(=O)([N-]S(=O)(=O)C(F)(F)F)C(F)(F)F` (centres unmarked) [[[MeDMMEAP] [Tf2N], 1-(N,N,N-dimethyl(methylethoxy)aminoethyl)-5-methylpyrrolidone-2-one bis(trifluoromethane)sulfonamide]: in series [4], the “g/L isobutanol left in solution” value turned out to be 28.8 g/L, the “mM isobutanol” value was determined as 389 mM and the “% isobutanol Extracted” value turned out to be 12.1%. In series [1], the “g/L ethanol left in solution” value was determined as 29.6 g/L, the “mM Ethanol” value is reported as 643 mM and the “% EthOH Extracted” value worked out at 1.88%.
